Here are results for eleven molecules from publication PMC6399351, “Cationic Intrinsically Disordered Antimicrobial Peptides (CIDAMPs) Represent a New Paradigm of Innate Defense with a Potential for Novel Anti-Infectives” (Scientific Reports, 2019).

Values joined by “and” are separate entries in the source; they are usually repeats but may differ in a detail not shown here. Equal values may be shown once. Read-outs that look alike come from different tables or passages of the source. Ends that are not written are not given here. Some results are limits rather than exact numbers.

The test system of test [1] is P. aeruginosa ATCC 10145. As to conditions: CFU assay, 10 mM NaP.
For test [2], the system named is Corynebacterium simulans DSM 44415. In words: CFU assay of antimicrobial activity. Type of test: cell-based. The note with it: 10 mM NaP, pH 6.0, 0.25% glucose. The protocol:
All purified peptides and recombinant proteins were applied using a colony forming unit (CFU) assay in different media. Bacteria were grown to early log-phase in BHI, washed either with 10 mM Na-P, pH 7.4/1% TSB or pH 5.5/1% TSB, or pH 5.5 without TSB or BHI, and adjusted to a concentration of 10^4–10^5 colony forming units (CFU)/ml. For cell number control, 100 µl aliquots were diluted 1:10, 1:100 and 1:1000 and plated in duplicates on BHI agar plates. […]
(§1) Then bacteria were incubated for 2 h at ambient temperature, if not otherwise stated. 10 µl of 0.01% (v/v) acetic acid, added to 100 µl aliquots of the bacteria in the respective medium, served as negative control. From each test, 1:10 and 1:100 dilutions were generated and plated as duplicates of 100 µl aliquots on BHI agar plates. After 16 h incubation at 37 °C, CFU were counted using a colony counter (Bio Kobe, Japan) and expressed as mean of the duplicate estimation to achieve a complete dose-response curve. All experiments were performed at serial dilutions in a concentration range of 100 µg/mL −25 ng/mL for recombinant HRNR fragments and 300 or 150 µg/mL–19 ng/mL for synthetic peptides.

Test [3] deals with Burkholderia cepacia ATCC 25416. The note with it: CFU assay, 10 mM NaP, pH 5.5, 0.25% glucose.
The subject of test [4] is E. coli ATCC 11775. In words: CFU assay of antimicrobial activity. Type of test: cell-based, Escherichia coli. As to conditions: 10 mM NaP, pH 5.5, 1% TSB. The protocol: (§2) All purified peptides and recombinant proteins were applied using a colony forming unit (CFU) assay in different media. Bacteria were grown to early log-phase in BHI, washed either with 10 mM Na-P, pH 7.4/1% TSB or pH 5.5/1% TSB, or pH 5.5 without TSB or BHI, and adjusted to a concentration of 10^4–10^5 colony forming units (CFU)/ml. For cell number control, 100 µl aliquots were diluted 1:10, 1:100 and 1:1000 and plated in duplicates on BHI agar plates. To 100 µl aliquots of the bacteria, suspended in the respective medium (10 mM Na-P buffer pH 7,0–7,4/ 1% (w/v) TSB; 10 mM Na-P buffer pH 5,5/ 1% (w/v) TSB; 10 mM Na-P buffer pH 7,0–7,4/ 1% (w/v) TSB pH 7,0–7,4/ 0,25% (w/v) glucose; 10 mM Na-P buffer pH 5,5/ 0,25% (w/v) glucose, respectively), 10 µl of a solution of the peptide or protein (two-fold dilutions, from 300 µg/ml or 150 µg/ml down to 19 ng/ml), dissolved in 0.01% (v/v) acetic acid, were added.
as §1

In test [5] the test system is C. albicans ATCC 24433. As to the kind of experiment: CFU assay of antimicrobial activity. Type of test: cell-based, Candida albicans. The note with it: 10 mM NaP. The protocol: Bacteria were cultivated in either brain heart infusion medium (BHI), lysogeny broth (LB) or tryptic soy broth (TSB)[88]. If not otherwise stated, bacteria were incubated under shaking conditions (37 °C at 170 rpm) or as indicated on the ATCC- or DSM-data sheets. Candida albicans was cultured for 3 days on Yeast Extract-Peptone Dextrose (YPD) agar at 30 °C and yeast suspensions at appropriate density were treated with CIDAMPs as indicated.
as §2, §1

Test [6] concerns S. aureus ATCC 6538.
Setting [7] is: CFU assay, 10 mM NaP, pH 5.5, 1% TSB.

In test [1] (pH 5.5, 0.25% glucose), QSGTRHTQTSSGGQAASSHEQAR [FLG2625-2647] displayed an LD90 greater than 300 µg/mL and an LD100 greater than 300 µg/mL. Also, in test [2], the LD90 is greater than 150 µg/mL and the LD100 was greater than 150 µg/mL.

Turning to HTQNSSSGQAASSHEQAR [FLG684-701], the LD90 is greater than 300 µg/mL in test [1] (pH 5.5, 0.25% glucose) and greater than 150 µg/mL in test [2]. Moreover, the LD100 in test [1] (pH 5.5, 0.25% glucose) is greater than 300 µg/mL; in test [2] it was greater than 150 µg/mL.

Turning to QSGTRHETSSGGQAASSQEQAR [FLG1652-1674], the LD90 in test [1] (pH 5.5, 0.25% glucose) is greater than 300 µg/mL; in test [2] it was greater than 150 µg/mL. The LD100 in test [1] (pH 5.5, 0.25% glucose) was greater than 300 µg/mL; in test [2], greater than 150 µg/mL.

With GRHGSGLGHSSSHGQHGSGSGRSSSRGPY [HR 1-17], the LD90 was greater than 300 µg/mL in test [3]; greater than 300 µg/mL in test [4]; 0.038 µg/mL and 0.075 µg/mL in test [1] (pH 5.5, 0.25% glucose); 0.59 µg/mL in test [1] (pH 5.5, 1% TSB); 18.8 µg/mL in test [5] (pH 5.5, 0.25% glucose); 18.8 µg/mL in test [5] (pH 5.5, 1% TSB). For the same molecule, the LD90 in test [6] (setting [7]) was greater than 300 µg/mL. For the same molecule, the LD100 is greater than 300 µg/mL in test [3]; greater than 300 µg/mL in test [4]; 0.15 µg/mL and 0.3 µg/mL in test [1] (pH 5.5, 0.25% glucose); 18.75 µg/mL in test [1] (pH 5.5, 1% TSB); 9.38 µg/mL in test [5] (pH 5.5, 0.25% glucose); 150 µg/mL in test [5] (pH 5.5, 1% TSB). This molecule returned an LD100 in test [6] (setting [7]) greater than 300 µg/mL.

In test [1] (pH 5.5, 0.25% glucose), QSGTRHAETSSGGQAASSHEQAR [FLG3273-3295] had an LD90 greater than 300 µg/mL and an LD100 of 300 µg/mL. In test [2], this molecule came in with an LD90 greater than 150 µg/mL and an LD100 greater than 150 µg/mL.

As for QSGTHHAENSSGGQAASSHEQAR [FLG2301-2323], the LD90 in test [1] (pH 5.5, 0.25% glucose) was greater than 300 µg/mL; in test [2], greater than 150 µg/mL. For the same molecule, the LD100 in test [1] (pH 5.5, 0.25% glucose) was 300 µg/mL; in test [2], greater than 150 µg/mL.

As for “rHRNR2638–2684: recombinant HRNR fragment (QSSGHGRQGSGSGQSPSRGRHGSGLGHSSSHGQHGSGSGRSSSRGPY; UniProt Q86YZ3 2638-2684, looked up, fragment)”, the LD90 in test [4] worked out at 3.1 µg/mL; in test [1] (pH 5.5, 1% TSB) it was 0.39 µg/mL; in test [5] (pH 5.5, 1% TSB), 6.3 µg/mL. Also, the LD100 is greater than 100 µg/mL in test [4]; 12.5 µg/mL in test [1] (pH 5.5, 1% TSB); greater than 100 µg/mL in test [5] (pH 5.5, 1% TSB).

In test [1] (pH 5.5, 0.25% glucose), “QGSHHEQSVNRSGHSGSHHSHTTSQGR [FLG528-554]” yielded an LD90 of 0.15 µg/mL and an LD100 of 0.59 µg/mL. For the same molecule, the “activity against S. aureus ATCC 6538” value in test [6] (at concentrations <60 µM (data not shown)) is listed as “lack activity”. For the same molecule, in test [2], the LD90 was greater than 150 µg/mL and the LD100 was greater than 150 µg/mL.

Regarding “rHRNR2656–2684: recombinant HRNR fragment (GRHGSGLGHSSSHGQHGSGSGRSSSRGPY; UniProt Q86YZ3 2656-2684, looked up, fragment)”, the LD90 in test [4] was determined as 3.1 µg/mL; in test [1] (pH 5.5, 1% TSB), 0.78 µg/mL; in test [5] (pH 5.5, 1% TSB) it was 6.3 µg/mL. In addition, the LD100 is greater than 100 µg/mL in test [4]; 12.5 µg/mL in test [1] (pH 5.5, 1% TSB); greater than 100 µg/mL in test [5] (pH 5.5, 1% TSB).

B1: rHRNR2727–2850: recombinant HRNR fragment (protein, UniProt Q86YZ3 2727-2850, looked up, fragment)
chain: SGQSSTFDQEGSSTGQSSSYGHRGSGSSQSSGYGRHGAGSGQSLSHGRHGSGSGQSSSYGQHGSGSGQSSGYSQHGSGSGQDGYSYCKGGSNHDGGSSGSYFLSFPSSTSPYEYVQEQRCYFYQ
B1: the LD90 came out at 0.28 µg/mL in test [4]; 2.1 µg/mL in test [1] (pH 5.5, 1% TSB); 8.6 µg/mL in test [5] (pH 5.5, 1% TSB). The LD100 in test [4] was greater than 100 µg/mL; in test [1] (pH 5.5, 1% TSB), 17.1 µg/mL; in test [5] (pH 5.5, 1% TSB), 137 µg/mL.

B2: rHRNR1075–1172: recombinant HRNR fragment (protein, UniProt Q86YZ3 1075-1172, looked up, fragment)
chain: THGQHGSTSGQSSSCGQHGASSGQSSSHGQHGSGSSQSSGYGRQGSGSGQSPGHGQRGSGSRQSPSYGRHGSGSGRSSSSGQHGSGLGESSGFGHHES
With B2, the LD90 in test [4] was 6.25 µg/mL; in test [1] (pH 5.5, 1% TSB) it was 6.25 µg/mL; in test [5] (pH 5.5, 1% TSB), 1.6 µg/mL. In addition, the LD100 is greater than 100 µg/mL in test [4]; greater than 100 µg/mL in test [1] (pH 5.5, 1% TSB); 12.5 µg/mL in test [5] (pH 5.5, 1% TSB).
